Results on 11 compounds are retold here after paper PMC8329280 (Scientific Reports, 2021).

Data set [1] deals with methicillin sensitive S. aureus (MSSA, strain 49775). The format is cell-based, Staphylococcus aureus. The conditions noted are these: for MIC100 MSSA: MSSA strain 49775, MHB medium pH 7.4, 24 h at 37 °C, A620 nm, triplicates. Here is the method: (§1) Antibacterial assays were realized to the method previously reported[22],[25]. S. aureus strains were pre-cultured for 20 h in aerobic conditions at 37 °C in Mueller–Hinton Broth (MHB) medium (Becton–Dickinson Microbiology Company, Sparks, USA) (pH 7.4). Bacteria were suspended at absorbance of 0.001 at 620 nm in the MHB medium. Antibacterial activity was tested for 24 h incubation at 37 °C with shaking by measuring the inhibition of bacterial growth. Ten µl of final volumes (10–200 µg/mL) of synthetic peptides were incubated in microtitration plates with 90 µl of a mid-logarithmic phase culture of bacteria, with a starting absorbance of 0.001 at 620 nm. A mixture of Tetracycline (10 mg/L) and Cefotaxime (0.1 mg/L) were used as positive controls. Microbial growth was assessed by the increase of absorbance after 24 h incubation at 37 °C. The A620 nm value of control cultures growing in the absence of peptide and antibiotics was defined as 100% growth. A620 nm value with the antibiotics (Tetracycline and Cefotaxime) was taken as 100% inhibition. Absence of bacterial growth was verified by agar plate spreading. Each assay was performed in triplicates. Data were shown as mean + /− standard deviation of three independent experiments; p < 0.05.

Data set [2] has as its system C. albicans (ATCC 10231TM). The data set can be described thus: Antimicrobial assay against C. albicans ATCC 10231. The format is cell-based, Candida albicans. The following applies: Sabouraud medium, 24 h at 37 °C, OD620nm, lowest concentration inhibiting 100% of growth. Here is the method:
Antimicrobial assays against C. albicans (ATCC 10231TM) were realized according to the method previously reported. C. albicans was cultured in Sabouraud medium (Sigma-Aldrich, Saint Louis, USA) supplemented with tetracycline (10 μg/mL) and cefotaxime (10 μg/mL) at 37 °C for 24 h. C. albicans (OD620nm = 0.001) were plated in 96-well plates and treated either with different concentrations of the peptides of interest, and/or with different concentrations of voriconazole (VCZ) (Sigma-Aldrich, Saint Louis, USA). As a positive control, cells were treated with 10 μg/mL VCZ. After 24 h incubation, yeast growth was assessed by optical density OD620nm using a spectrophotometer Multiskan EX Microplate Reader Lab (Thermo Fisher Scientific, Waltham, MA, USA).
The MIC of the antifungal agents is defined as the lowest concentration of drug able to inhibit 100% of the growth of C. albicans.

Data set [3] deals with methicillin resistant S. aureus (MRSA, strain S1). Nature of the data set: Antibacterial growth inhibition assay, MRSA strain S1. The conditions noted are these: MHB medium pH 7.4, 24 h at 37 °C, A620 nm, triplicates. Format: cell-based, Staphylococcus aureus. Here is the method:
as §1

Data set [4] concerns Human Peripheral Blood Mononuclear Cells (PBMCs). Nature of the data set: Cytokine release assay, Bio-Plex Multiplex Immunoassay. The following applies: 30 µM, 24 h, IL-6, IL-8, IL-10 pointed out, two healthy volunteers. Format: cell-based. From the text: (§2) The release of cytokines IL-6, IL-8, IL-10 and TNF-α induced after the treatment of immune cells by Cts was realized by the use of an automated ELISA immunoassay (Immulite One, Siemens la Garenne-Colombe, France) and with the Bio-Plex Multiplex Immunoassay system (Bio-Rad, Marnes-la-Coquette) for the treatment of Human Peripheral Blood Mononuclear Cells (PBMCs) by L-Ctl, D-Ctl, Ctl-C, D-Ctl-C and P3. PBMCs from healthy volunteers were obtained from the blood transfusion centre of Strasbourg (Etablissement Français du Sang, Strasbourg) and isolated by density gradient centrifugation using Lymphoprep (Stemcell Technologies). PMBC were then maintained in AIM V medium (Thermo Fisher Scientific, Waltham, MA, USA) at 37 °C in a 5% CO2 humidified incubator and treated for 24 h with 30 µM of each peptide (L-Ctl, D-Ctl, Ctl-C, D-Ctl-C and P3). Three technical replicates were performed for each condition. Supernatants were then filtered and assessed for cytokine dosage according to the manufacturer’s instructions.

The subject of data set [5] is proteases produced by Staphylococcus aureus. Nature of the data set: proteases produced by Staphylococcus aureus. The following applies: cited from earlier work.
The test system of a further data set is MRSA. The format is cell-based, Staphylococcus aureus. Here is the method: (§3) The L- and D- forms of Ctl and also the corresponding L- and D-forms of the scramble peptides were tested by Atlangram (Nantes, France) against resistant Gram-negative bacteria (Escherichia coli, Klebsiella pneumoniae, Enterobacter cloacae, Enterobacter aerogenes, Serratia marcescens, Morganella morganii, Pseudomonas aeruginosa), MSSA, MRSA and yeast (C. albicans). The MICs were determined according to the CASFM/EUCAST 2018 (Comité de l’Antibiogramme de la Société Française de Microbiologie).

The subject of a further data set is Morganella morganii. Format: cell-based. Here is the method:
as §3

In the next data set the test system is Candida albicans. The format is cell-based. Here is the method:
as §3

A further data set concerns Escherichia coli. Format: cell-based. Here is the method: as §3
In data set [6] the test system is Endoprotease Glu-C from S. aureus V8 (E.C. 3.4.21.19). The data set can be described thus: endoprotease Glu-C in 50 mM Tris–HCl pH 8.2 or PBS. The following applies: S. aureus V8, 37 °C, up to 18 h.
Data set [7] has the same test system. Nature of the data set: Endoprotease Glu-C in 50 mM Tris–HCl pH 8.2 or PBS. The conditions noted are these: S. aureus V8 (enzyme source), 37 °C, up to 18 h.
Another data set has as its system Citrobacter freundii. The format is cell-based.
A further data set has as its system MSSA. The format is cell-based, Staphylococcus aureus. Here is the method: as §3
A further data set deals with Serratia marcescens. The format is cell-based. Here is the method: as §3
The next data set relates to Pseudomonas aeruginosa. Format: cell-based. Here is the method:
as §3

The next data set concerns CD14 cells. Nature of the data set: Cytokine release assay, ELISA. Format: cell-based, human. The following applies: 24 h, cells from 2 patients. Here is the method: Three types of immune cells were prepared from human monocytes provided from the EFS (Etablissement Français du Sang). Dendritic cells (DC1a), CD14 and macrophages were obtained after treatment of monocytes by cytokines according to the methods previously reported[31],[32] and the identification of the immune cells was validated by using flow cytometry analysis (Fluorescence Activated Cell Sorting, FACS).
as §2

pIC50: −log10 of the molar value. ≈ marks a conversion by molar mass, not a printed value. Entries after “also recorded” stand apart in the source; their conditions may differ. Starred links: 1 amine or outer side, 2 acyl side, 3 side chain; linkers in the order of their positions; H or OH if unused. Positions of bridges follow the written chain, without caps; N, C: chain ends. Non-standard residues stand in square brackets, D forms with d. Residues, ends and D or L forms follow the SMILES beside them. Chains are numbered I, II in the order given. X1 = O=C1CC([*:1])C(=O)N1CCOCCOCCOCCN1C(=O)CC([*:2])C1=O; Dopa = N[C@@H](Cc1ccc(O)c(O)c1)C(=O)O

As for `CSCC[C@H](NC(=O)[C@H](CO)NC(=O)[C@@H](N)CCCNC(=N)N)C(=O)N[C@@H](CCCNC(=N)N)C(=O)N[C@@H](CC(C)C)C(=O)N[C@@H](CO)C(=O)N[C@@H](Cc1ccccc1)C(=O)N[C@@H](CCCNC(=N)N)C(=O)N[C@@H](C)C(=O)N[C@@H](CCCNC(=N)N)C(=O)NCC(=O)N[C@@H](Cc1ccc(O)cc1)C(=O)NCC(=O)N[C@@H](Cc1ccccc1)C(=O)N[C@@H](CCCNC(=N)N)C(=O)N[C@@H](CSC1CC(=O)N(CCOCCOCCOCCN2C(=O)CC(SC[C@H](NC(=O)[C@H](CCCNC(=N)N)NC(=O)[C@H](Cc3ccccc3)NC(=O)CNC(=O)[C@H](Cc3ccc(O)cc3)NC(=O)CNC(=O)[C@H](CCCNC(=N)N)NC(=O)[C@H](C)NC(=O)[C@H](CCCNC(=N)N)NC(=O)[C@H](Cc3ccccc3)NC(=O)[C@H](CO)NC(=O)[C@H](CC(C)C)NC(=O)[C@H](CCCNC(=N)N)NC(=O)[C@H](CCSC)NC(=O)[C@H](CO)NC(=O)[C@@H](N)CCCNC(=N)N)C(=O)O)C2=O)C1=O)C(=O)O` (stereo partly drawn) [Peptide P3] (I: H-RSMRLSFRARGYGFRC-OH / II: H-RSMRLSFRARGYGFRC-OH; linker I:16-II:16 via X1; N-terminus and C-terminus assumed), the “MIC100 MSSA” value in [1] is given as 30 µM (≈ 128 µg/mL). The “MIC100 C. albicans” value in [2] is 20 µM (≈ 85.6 µg/mL). In addition, the “MIC100 MRSA” value in data set [3] is reported as 50 µM (≈ 214 µg/mL). Besides, the “release of the tested cytokines from PBMCs” value in [4] is given as “unable to induce te release of the tested cytokines; also recorded: unable to release significantly the tested cytokines”.
In the case of “RSMRLSFRARGYGFRMal-(46PEG)-MalRFGYGRARFSLRMSR [Peptide P6, dimeric form of Ctl with spacer of 46 PEG]”, the “MIC100 MSSA” value in data set [1] is greater than 100 µM.
RSMRLSFRARGYGFR: the not cleaved entry in data set [5] is reported as “resistant to degradation by the proteases produced by Staphylococcus aureus”.
For orientation: MIC means the least concentration at which growth counts as inhibited. Higher therefore signals weaker potency. Take `CSCC[C@@H](NC(=O)[C@@H](CO)NC(=O)[C@H](N)CCCNC(=N)N)C(=O)N[C@H](CCCNC(=N)N)C(=O)N[C@H](CC(C)C)C(=O)N[C@H](CO)C(=O)N[C@H](Cc1ccccc1)C(=O)N[C@H](CCCNC(=N)N)C(=O)N[C@H](C)C(=O)N[C@H](CCCNC(=N)N)C(=O)NCC(=O)N[C@H](Cc1ccc(O)cc1)C(=O)NCC(=O)N[C@H](Cc1ccccc1)C(=O)N[C@H](CCCNC(=N)N)C(=O)O` [D-Ctl] (H-[dR][dS][dM][dR][dL][dS][dF][dR][dA][dR]G[dY]G[dF][dR]-OH): the MIC with MRSA is listed as 64 µg/mL (≈ 34.4 µM); in the data set on Morganella morganii, greater than 128 µg/mL; against Candida albicans, 256 µg/mL (≈ 138 µM). Besides, in the data set with Escherichia coli, the “MIC against several strains of E. coli” value lay in the range of 8 to 32 µg/mL.
For the compound “DOPA-K-DOPA-K-DOPA-TLRGGE-RSMRLSFRARGYGFR”, in [6], the cleaved bond entry is “E-R, major”.
Usually pIC50 stands for the negative decadic logarithm of the IC50, by convention in mol/L. A lower pIC50 goes with a large IC50. In [1] (methicillin sensitive (, strain 49775, 24 h)), `CSCC[C@@H](NC(=O)[C@@H](CO)NC(=O)[C@@H](CCCNC(=N)N)NC(=O)[C@H](CCC(=O)O)NC(=O)CNC(=O)CNC(=O)[C@H](CCCNC(=N)N)NC(=O)[C@H](CC(C)C)NC(=O)[C@@H](NC(=O)[C@H](Cc1ccc(O)c(O)c1)NC(=O)[C@H](CCCCN)NC(=O)[C@H](Cc1ccc(O)c(O)c1)NC(=O)[C@H](CCCCN)NC(=O)[C@@H](N)Cc1ccc(O)c(O)c1)[C@@H](C)O)C(=O)N[C@H](CCCNC(=N)N)C(=O)N[C@H](CC(C)C)C(=O)N[C@H](CO)C(=O)N[C@H](Cc1ccccc1)C(=O)N[C@H](CCCNC(=N)N)C(=O)N[C@H](C)C(=O)N[C@H](CCCNC(=N)N)C(=O)NCC(=O)N[C@H](Cc1ccc(O)cc1)C(=O)NCC(=O)N[C@H](Cc1ccccc1)C(=O)N[C@H](CCCNC(=N)N)C(=O)O` [DOPA5T-(D)Ctl] (H-[Dopa]K[Dopa]K[Dopa]TLRGGE[dR][dS][dM][dR][dL][dS][dF][dR][dA][dR]G[dY]G[dF][dR]-OH) had a pIC50 of 4.46.
In the case of TLRGGE-RSMRLSFRARGYGFR, the cleaved bond entry in [7] is “R-A, major”; in data set [6], “R-A, major”. Further, in data set [6], the fragment found entry is “TLRGGE, major”.
With `CSCC[C@@H](NC(=O)[C@H](N)Cc1ccccc1)C(=O)N[C@H](CCCNC(=N)N)C(=O)N[C@H](CC(C)C)C(=O)N[C@H](CCCNC(=N)N)C(=O)N[C@H](Cc1ccc(O)cc1)C(=O)N[C@H](CCCNC(=N)N)C(=O)N[C@H](CO)C(=O)N[C@H](CO)C(=O)N[C@H](C)C(=O)N[C@H](Cc1ccccc1)C(=O)NCC(=O)NCC(=O)N[C@H](CCCNC(=N)N)C(=O)N[C@H](CCCNC(=N)N)C(=O)O` [Control D, reference compound] (H-[dF][dM][dR][dL][dR][dY][dR][dS][dS][dA][dF]GG[dR][dR]-OH), the MIC against Citrobacter freundii is 128 µg/mL (≈ 68.8 µM); with MRSA it was greater than 128 µg/mL; in the data set with MSSA, greater than 128 µg/mL; in the data set with Morganella morganii it was greater than 128 µg/mL; with Candida albicans it was 512 µg/mL (≈ 275 µM); in the data set on Serratia marcescens, greater than 128 µg/mL. The compound also returned an MIC in the data set on Pseudomonas aeruginosa greater than 128 µg/mL.
Catestatin [Cts]: in the data set on CD14 cells (15 µM, cell type not given), the “production of IL-6” value is given as “not modified”, the “production of IL-10” value is given as “not modified” and the “production of TNF-α” value is listed as “not modified”. Besides, in the data set with CD14 cells (CD14, 15 µM), the “decrease of the amount of IL-8 released versus controls (without peptide)” value is recorded as 26%.
For “RSMRLSFRARGYGFRMal-(16PEG)-MalRFGYGRARFSLRMSR [Peptide P5, dimeric form of Ctl with spacer of 16 PEG]”, the “MIC100 MSSA” value in data set [1] is listed as greater than 100 µM. The “MIC100 C. albicans” value in data set [2] was determined as 50 µM. In addition, the “MIC100 MRSA” value in data set [3] is listed as greater than 100 µM.
With “RSMRLSFRARGYGFRMal-(12PEG)-MalRFGYGRARFSLRMSR [Peptide P4, dimeric form of Ctl with spacer of 12 PEG]”, the “MIC100 MSSA” value in data set [1] was greater than 100 µM.
